Results reported in patent US12083098B2, “Treatment of idiopathic pulmonary fibrosis with glycogen synthase kinase 3 form β inhibitors” (Actuate Therapeutics Inc., priority 2018, dated 2024).
“Also recorded” adds a separate entry of the source.

Tests used:
[1] = test system: bleomycin-induced pulmonary fibrosis; experiment: Bleomycin-induced pulmonary fibrosis model in mice; type: in vivo, C57BL/6 mice
Protocol: All animal studies were approved by the Institutional Animal Care and Use Committee at the University of Texas Health Science Center at Tyler. C57BL/6 mice (10-12 weeks of age, ≈20 g (from Jackson Laboratory, Bar Harbor ME) were first anesthetized with xylazine/ketamine by intraperitoneal (TP) injection. Lung injury was then initiated in accordance with (Sisson T H et al., Am J Pathol 2015, 185:[…]) with some modifications. Bleomycin sulfate (Teva, 0.8 units/kg) was administered intratracheally via an intratracheal cannula. Animals were monitored daily for sign of respiratory distress, significant weight loss or moribund condition. The control group received normal saline under the same conditions.
Treatments were begun 14 d after the initiation of injury. For GSK-3β inhibitor studies, treatment with 9-ING-41 (gift from Actuate Therapeutics, Ft. Worth, TX), at 30 mg/kg, or vehicle control dimethylsulfoxide/DMSO in a volume of 40 μl, was administered daily by IP injection for up to 14 d.
At the completion of the 28 d time course mice were evaluated by flexivent (Tucker T et al., Am J Respir Cell Mol Biol 2019 (doi: 10.1165/rcmb.2018-0121OC. Epub ahead of print); Kamata H et al., Sci Rep 2017, 7:4556; Boren J et al., supra; Tucker T A et al., 2014, supra; Tucker T A et al., Clin Transl Med 5: 17, 2016) for changes in pulmonary function including elastance and compliance. Briefly, mice were anesthetized with a ketamine/xylazine mixture. Anesthetized mice were intubated by inserting a sterile, 20-gauge intravenous cannula through the vocal cords into the trachea and were maintained under anesthesia using isoflurane during pulmonary function testing. Measurements were performed using the flexiVent system (SCIREQ, Tempe AZ). The “snapshot perturbation method” was used to determine lung compliance, according to manufacturer's specifications. At 28 d, mice were euthanized and lungs harvested en bloc. Lung morphometry was determined by trichrome staining of 5 μm lung tissue sections as described in the above cited references. All tissue sections were first de-paraffinized and subjected to antigen retrieval using a citrate buffer at 95° C. for 20 minutes. Tissue analyses, collagen deposition and localization were initially assessed by Trichrome staining. Immunofluorescence was used to visualize α-SMA (MAB1420, R&D), Confocal microscopy was then used to visualize immunofluorescence and co-localization of the markers. Images were acquired from a field of view at 0.4-μm z-axis increments with the LSM 510 Meta confocal system (Carl Zeiss) at 40× as described.
(§1) All statistical analyses of animal studies was performed using the Mann Whitney U test. (Student's t-test was used for in vitro studies). A p-value of less than 0.05 was considered significant.

[2] = test system: TGF-β adenovirus induced pulmonary fibrosis; experiment: TGF-β adenovirus-induced pulmonary fibrosis model in mice; type: in vivo
Protocol: In a second model, pulmonary fibrosis was initiated by intratracheal instillation of constitutively active TGF-β adenoviral vectors (Ad-TGF-β) bearing C223S/C225S mutations, as reported by Mackinnon A C et al., Am J Respir Crit Care Med 2012, 185:537-46) with some modifications. Briefly, 3×10^8 pfu of Ad-TGF-β or eGFP adenovirus control vector (Ad-eGFP) were administered intratracheally in a volume of 40 μl. Mice were then monitored daily until the completion of the 14 d time-course. For GSK-3β inhibition studies, mice received daily 9-ING-41 treatment 7 d after administration of the adenoviral vectors. At the conclusion of the time-course pulmonary function testing and CT scans were performed as described (Tucker T et al., 2019, supra; Kamata H et al., 2017, supra; Boren J et al., 2017, supra; Tucker T A et al., 2016, supra.
as §1
Pulmonary fibrosis was initiated by intratracheal instillation of constitutively active TGF-β adenoviral vectors (Ad-TGF-0) bearing C223S/C225S mutations, as previously reported (Mackinnon A C et al., Am J Respir Crit Care Med 2012, 185:537-46) with some modifications. Briefly, 3×10^8 plaque forming units (pfu) of Ad-TGF-β or eGFP adenovirus control vector (Ad-eGFP) were administered intratracheally in a volume of 40 μl. Mice were then monitored daily until the completion of the 14 d time-course. For GSK-3β inhibition studies, mice received daily 9-ING-41 treatment 7 d after administration of the adenoviral vectors. At the conclusion of the time-course pulmonary function testing and CT scans were performed as described (Tucker T et al., 2019, supra; Kamata H et al., 2017, supra; Boren J et al., 2017, supra; Tucker T A et al., 2016, supra.

SMILES: Cn1cc(C2=C(c3coc4ccc(F)cc34)C(=O)NC2=O)c2cc3c(cc21)OCO3 [9-ING-41]
- lung volume (gated CT scan) ([1]; bleomycin 0.8 U/kg intratracheal, 30 mg/kg daily ip from day 14, read at 28 d, vs DMSO vehicle, p=0.026, 30 mg/kg): significantly improved; also recorded: increased lung volume
- collagen 1 deposition in lung sections (immunostaining, confocal microscopy 40×) ([1]; bleomycin injured lungs, compared to vehicle (DMSO) treated controls): reduced
- areas of injury / fibrotic foci in lung sections (Trichrome) ([1]; bleomycin model, 30 mg/kg daily ip, 5 μm sections, n=6, compared to vehicle treated animals): fewer in number and smaller
- collagen deposition within the fibrotic lesions ([1]; bleomycin model, 30 mg/kg daily ip, compared to DMSO-treated controls): generally reduced
- lung compliance (Scireq flexivent) ([1]; bleomycin sulfate 0.8 U/kg intratracheal, 9-ING-41 30 mg/kg daily ip from day 14 for up to 14 d, read at 28 d, vs DMSO vehicle, p=0.04, 30 mg/kg): significantly improved; also recorded: improved lung function
- α-SMA expression in lung sections (immunostaining, confocal microscopy 40×) ([1]; marker of myofibroblast differentiation, n=3 mice/treatment, compared to vehicle (DMSO)): reduced
- lung compliance ([2]; Ad-TGF-β 3×10^8 pfu intratracheal, 9-ING-41 30 mg/kg daily ip from day 7 for 7 d, read at 14 d, n=6, p<0.05 vs controls, 30 mg/kg): significantly improved; also recorded: improved lung function
- lung volume ([2]; TGF-β adenovirus model, at completion of 14 d time course): increased lung volume
- areas of injury and collagen deposition in lung sections (Trichrome) ([2]; TGF-β adenovirus model, compared to DMSO-treated controls, n=6): reduced areas of injury
